Results: ChEMBL document CHEMBL1158929, “Tolytoxin and new scytophycins from three species of Scytonema” (J Nat Prod, 1990)
Converted amounts (≈) assume the structure as drawn. The source made the active and inactive calls. The rule behind the calls is not given here.

Assays:
Candida albicans = assay: Antifungal activity against Candida albicans by agar diffusion assay; format: functional, organism-based
Saccharomyces cerevisiae = assay: Antifungal activity against Saccharomyces cerevisiae by agar diffusion assay; format: functional, organism-based
Penicillium chrysogenum = assay: Antifungal activity against Penicillium notatum by agar diffusion assay; format: functional, organism-based
Aspergillus oryzae = assay: Antifungal activity against Aspergillus oryzae by agar diffusion assay; format: functional, organism-based
KB = assay: Cytotoxicity against human KB cells; format: functional, cell-based
LoVo = assay: Cytotoxicity against human LoVo cells; format: functional

SMILES | Activity (Candida albicans) | Activity (Saccharomyces cerevisiae) | Activity (Penicillium chrysogenum) | Activity (Aspergillus oryzae) | IC50 (KB) | MIC (LoVo)
CO[C@H]([C@H](C)/C=C/N(C)C=O)[C@@H](C)C(=O)CC[C@H](C)[C@H](O)[C@H](C)[C@H]1OC(=O)/C=C/C(C)=C/[C@H](O)[C@H](OC)C[C@@H]2C=CC[C@@H](C[C@H](OC)[C@@H](CO)[C@@H](OC)C[C@@H](OC)[C@@H]1C)O2 | Active | Active | Active | Active | 1 ng/mL (≈ 1.17 nM) | 
CO[C@H]([C@H](C)/C=C/N(C)C=O)[C@@H](C)C(=O)CC[C@H](C)[C@H](O)[C@H](C)[C@H]1OC(=O)/C=C/C(C)=C/C[C@H](O)C[C@@H]2C=CC[C@@H](C[C@H](OC)[C@](C)(O)[C@@H](OC)C[C@@H](OC)[C@@H]1C)O2 [SCYTOPHYCIN D] |  |  |  |  | 10 ng/mL (≈ 12.2 nM) | 
CO[C@H]([C@H](C)/C=C/N(C)C=O)[C@@H](C)C(O)CC[C@H](C)[C@H](O)[C@H](C)[C@H]1OC(=O)/C=C/C(C)=C/C[C@H](O)C[C@@H]2C=CC[C@@H](C[C@H](OC)[C@@]3(CO3)[C@@H](OC)C[C@@H](OC)[C@@H]1C)O2 (stereo partly specified) [SCYTOPHYCIN A] |  |  |  |  | 1 ng/mL (≈ 1.22 nM) | 
CO[C@H]([C@H](C)/C=C/N(C)C=O)[C@@H](C)C(=O)CC[C@H](C)[C@H](O)[C@H](C)[C@H]1OC(=O)/C=C/C(C)=C/C[C@H](O)C[C@@H]2C=CC[C@@H](C[C@H](OC)[C@@H](CO)[C@@H](OC)C[C@@H](OC)[C@@H]1C)O2 [SCYTOPHYCIN E] |  |  |  |  | 10 ng/mL (≈ 12.2 nM) | 10 ng/mL (≈ 12.2 nM)
CO[C@H]([C@H](C)/C=C/N(C)C=O)[C@@H](C)C(=O)CC[C@H](C)[C@H](O)[C@H](C)[C@H]1OC(=O)/C=C/C(C)=C/[C@H](O)[C@H](O)C[C@@H]2C=CC[C@@H](C[C@H](OC)[C@@]3(CO3)[C@@H](OC)C[C@@H](OC)[C@@H]1C)O2 [6-HYDROXYSCYTOPHYCIN B] | Active | Active | Active | Active | 1 ng/mL (≈ 1.2 nM) | 
CO[C@H]([C@H](C)/C=C/N(C)C=O)[C@@H](C)C(=O)CC[C@H](C)[C@H](O)[C@H](C)[C@H]1OC(=O)/C=C/C(C)=C/C[C@H](O)C[C@@H]2C=CC[C@@H](C[C@H](OC)[C@@H](C)[C@@H](OC)C[C@@H](OC)[C@@H]1C)O2 [SCYTOPHYCIN C] |  |  |  |  | 10 ng/mL (≈ 12.4 nM) | 
CO[C@H]([C@H](C)/C=C/N(C)C=O)[C@@H](C)C(=O)CC[C@H](C)[C@H](O)[C@H](C)[C@H]1OC(=O)/C=C/C(C)=C/C[C@H](O)C[C@@H]2C=CC[C@@H](C[C@H](OC)[C@@]3(CO3)[C@@H](OC)C[C@@H](OC)[C@@H]1C)O2 [SCYTOPHYCIN B] |  |  |  |  | 1 ng/mL (≈ 1.22 nM) | 
CO[C@H]([C@H](C)/C=C/N(C)C=O)[C@@H](C)C(=O)CC[C@H](C)[C@H](O)[C@H](C)[C@H]1OC(=O)/C=C/C(C)=C/C[C@H](O)C[C@@H]2C=CC[C@@H](C[C@H](OC)[C@@H](C)[C@@H](OC)C[C@@H](O)[C@@H]1C)O2 | Active | Active | Active | Active | 1 ng/mL (≈ 1.26 nM) | 
CO[C@H]([C@H](C)/C=C/N(C)C=O)[C@@H](C)C(=O)CC[C@H](C)[C@H](O)[C@H](C)[C@H]1OC(=O)/C=C/C(C)=C/[C@H](O)[C@H](OC)C[C@@H]2C=CC[C@@H](C[C@H](OC)[C@@]3(CO3)[C@@H](OC)C[C@@H](OC)[C@@H]1C)O2 [TOLYTOXIN] | Active | Active | Active | Active | 1 ng/mL (≈ 1.18 nM) | 
